Reference: patent US20080221100A1, “SOLUBLE EPOXIDE HYDROLASE INHIBITORS” (Arete Therapeutics, Inc., priority 2006, published 2008)

Tested on: soluble epoxide hydrolase (sEH)
Assay: Fluorescent assay for mouse and human soluble epoxide hydrolase (CMNPC substrate)
Type: biochemical, mouse or human, not specified
Conditions: Conc 50 nM
Source text: Fluorescent Assay for Mouse and Human Soluble Epoxide Hydrolase Recombinant mouse sEH (MsEH) and human sEH (HsEH) were produced in a baculovirus expression system as previously reported. Grant et al., J. Biol. Chem., 268:17628-17633 (1993); Beetham et al., Arch. Biochem. Biophys., 305:197-201 (1993). The expressed proteins were purified from cell lysate by affinity chromatography. Wixtrom et al., Anal. Biochem., 169:71-80 (1988). Protein concentration was quantified using the Pierce BCA assay using bovine serum albumin as the calibrating standard. […] They contained no detectable esterase or glutathione transferase activity which can interfere with the assay. The assay was also evaluated with similar results in crude cell lysates or homogenate of tissues. The IC50s for each inhibitor were determined according to the following procedure: Substrate: [drawing 155] […] Jones P. D. et al.; Analytical Biochemistry 2005; 343: pp. 66-75) Solutions: Bis/Tris HCl 25 mM pH 7.0 containing 0.1 mg/mL of BSA (buffer […] at 0.25 mM in DMSO. Mother solution of enzyme in buffer A (Mouse sEH at 6 μg/mL and Human sEH at 5 μg/mL). Inhibitor dissolved in DMSO at the appropriate concentration. Protocol: In a black 96 well plate, fill all the wells with 150 μL of buffer A. Add 2 μL of DMSO in well A2 and A3, and then add 2 μL of inhibitor solution in A1 and A4 through A12. Add 150 μL of buffer A in row A, then mix several time and transfer 150 μL to row B. Repeat this operation up to row H. The 150 μL removed from row H is discarded. Add 20 μL of buffer A in column 1 and 2, then add 20 μL of enzyme solution to column 3 to 12. Incubate the plate for 5 minutes in the plate reader at 30° C. During incubation prepare the working solution of substrate by mixing 3.68 mL of buffer A (4×0.920 mL) with 266 μL (2×133 μL) of substrate solution). At t=0, add 30 μL of working substrate solution with multi-channel pipette labeled “Briggs 303” and start the reading ([S]final: 5 μM). Read with ex: 330 nm (20 nm) and em: 465 nm (20 nm) every 30 second for 10 minutes. The velocities are used to analyze and calculate the IC50s.

Going from CC(C)CC(=O)N1CCC(NC(=O)Nc2ccc(C(F)(F)F)cc2)CC1 [Compound 6, 1-[1-(3-Methyl-butyryl)-piperidin-4-yl]-3-(4-trifluoromethyl-phenyl)-urea] to CC(C)S(=O)(=O)N1CCC(NC(=O)Nc2ccc(C(F)(F)F)cc2)CC1 [Compound 42, 1-(1-(Isopropylsulfonyl)piperidin-4-yl)-3-(4-(trifluoromethyl)phenyl)urea], the “% Inhibition” value falls from 94% to 93%.

O=C(Nc1ccc(C(F)(F)F)cc1)NC1CCN(C(=O)c2cccnc2)CC1 [Compound 8, 1-[1-(Pyridine-3-carbonyl)-piperidin-4-yl]-3-(4-trifluoromethyl-phenyl)-urea] and O=C(Nc1ccc(C(F)(F)F)cc1)NC1CCN(C(=O)c2ccccn2)CC1 [Compound 9, 1-[1-(Pyridine-2-carbonyl)-piperidin-4-yl]-3-(4-trifluoromethyl-phenyl)-urea] are the same in “% Inhibition” value: 94% for the first, 94% for the second.

Going from O=C(Nc1ccc(F)cc1)NC1CCN(C(=O)c2ccc(C(=O)O)cc2)CC1 [Compound 10, 4-{4-[3-(4-Fluoro-phenyl)-ureido]-piperidine-1-carbonyl}-benzoic acid] to O=C(Nc1ccc(C(F)(F)F)cc1)NC1CCN(C(=O)c2ccc(C(=O)O)cc2)CC1 [Compound 11, 4-{4-[3-(4-Trifluoromethyl-phenyl)-ureido]-piperidine-1-carbonyl}-benzoic acid], the “% Inhibition” value rises from 75% to 98%.

Compared with O=C(Nc1ccc(F)cc1)NC1CCN(S(=O)(=O)c2cccc(C(F)(F)F)c2)CC1 [Compound 12, 1-(4-Fluoro-phenyl)-3-[1-(3-trifluoromethyl-benzenesulfonyl)-piperidin-4-yl]-urea], O=C(Nc1ccc(F)cc1)NC1CCN(S(=O)(=O)c2ccc(C(F)(F)F)cc2)CC1 [Compound 14, 1-(4-Fluoro-phenyl)-3-[1-(4-trifluoromethyl-benzenesulfonyl)-piperidin-4-yl]-urea] is lower in “% Inhibition” value: 90% for the first, 89% for the second.

First: O=C(Nc1ccc(F)cc1)NC1CCN(S(=O)(=O)c2ccccc2)CC1 [Compound 13, 1-(1-Benzenesulfonyl-piperidin-4-yl)-3-(4-fluoro-phenyl)-urea]
Second: O=C(Nc1ccc(C(F)(F)F)cc1)NC1CCN(S(=O)(=O)c2ccccc2)CC1 [Compound 17, 1-(1-Benzenesulfonyl-piperidin-4-yl)-3-(4-trifluoromethyl-phenyl)-urea]
The “% Inhibition” value of the first is lower: 79% for the first, 90% for the second.

First: O=C(Nc1ccc(Cl)cc1)NC1CCN(S(=O)(=O)c2ccc(C(=O)O)cc2)CC1 [Compound 15, 4-{4-[3-(4-Chloro-phenyl)-ureido]-piperidine-1-sulfonyl}-benzoic acid]
Second: O=C(Nc1ccc(C(F)(F)F)cc1)NC1CCN(S(=O)(=O)c2ccc(C(=O)O)cc2)CC1 [Compound 16, 4-{4-[3-(4-Trifluoromethyl-phenyl)-ureido]-piperidine-1-sulfonyl}-benzoic acid]
The “% Inhibition” value of the first is lower: 75% for the first, 80% for the second.

Going from O=C(Nc1ccc(C(F)(F)F)cc1)NC1CCN(S(=O)(=O)c2ccc(Cl)cc2)CC1 [Compound 18, 1-[1-(4-Chloro-benzenesulfonyl)-piperidin-4-yl]-3-(4-trifluoromethyl-phenyl)-urea] to O=C(Nc1ccc(C(F)(F)F)cc1)NC1CCN(S(=O)(=O)c2cccc(C(F)(F)F)c2)CC1 [Compound 20, 1-[1-(3-Trifluoromethyl-benzenesulfonyl)-piperidin-4-yl]-3-(4-trifluoromethyl-phenyl)-urea], the “% Inhibition” value rises from 90% to 96%.

Going from CS(=O)(=O)N1CCC(NC(=O)Nc2cccc(C(F)(F)F)c2)CC1 [Compound 24, 1-(1-Methanesulfonyl-piperidin-4-yl)-3-(3-trifluoromethyl-phenyl)-urea] to CC(=O)N1CCC(NC(=O)Nc2cccc(C(F)(F)F)c2)CC1 [Compound 25, 1-(1-Acetyl-piperidin-4-yl)-3-(3-trifluoromethyl-phenyl)-urea], the “% Inhibition” value falls from 86% to 68%.

First: O=C(Nc1cccc(C(F)(F)F)c1)NC1CCN(S(=O)(=O)c2ccccc2)CC1 [Compound 26, 1-(1-Benzenesulfonyl-piperidin-4-yl)-3-(3-trifluoromethyl-phenyl)-urea]
Second: O=C(Nc1cccc(C(F)(F)F)c1)NC1CCN(S(=O)(=O)c2ccc(C(F)(F)F)cc2)CC1 [Compound 29, 1-[1-(4-Trifluoromethyl-benzenesulfonyl)-piperidin-4-yl]-3-(3-trifluoromethyl-phenyl)-urea]
The “% Inhibition” value of the first is lower: 90% for the first, 95% for the second.

Compared with O=C(Nc1ccc(C(F)(F)F)cc1)NC1CCN(C(=O)Cc2c[nH]cn2)CC1 [Compound 33, 1-[1-(2-1H-Imidazol-4-yl-acetyl)-piperidin-4-yl]-3-(4-trifluoromethyl-phenyl)-urea], Cn1cnc(C(=O)N2CCC(NC(=O)Nc3ccc(C(F)(F)F)cc3)CC2)c1 [Compound 35, 1-[1-(1-Methyl-1H-imidazole-4-carbonyl)-piperidin-4-yl]-3-(4-trifluoromethyl-phenyl)-urea] is higher in “% Inhibition” value: 72% for the first, 89% for the second.

Same assay, conditions: Conc 200 nM

Going from CC(C)C(=O)N1CCC(NC(=O)Nc2ccc(C(F)(F)F)cc2)CC1 [Compound 45, 1-(1-isobutyrylpiperidin-4-yl)-3-(4-(trifluoromethyl)phenyl)urea] to CC(C)(C)CC(=O)N1CCC(NC(=O)Nc2ccc(C(F)(F)F)cc2)CC1 [Compound 48, 1-(1-(3,3-dimethylbutanoyl)piperidin-4-yl)-3-(4-(trifluoromethyl)phenyl)urea], the “% Inhibition” value rises from 97% to 100%.

Same assay, conditions: Conc 500 nM

Going from O=C(Nc1ccc(F)c(F)c1)NC1CCN(C(=O)CCCN2CCOCC2)CC1 [Compound 2, 1-(3,4-Difluoro-phenyl)-3-[1-(4-morpholin-4-yl-butyryl)-piperidin-4-yl]-urea] to O=C(Nc1ccc(Cl)cc1)NC1CCN(C(=O)Cc2c[nH]cn2)CC1 [Compound 34, 1-(4-Chloro-phenyl)-3-[1-(2-1H-imidazol-4-yl-acetyl)-piperidin-4-yl]-urea], the “% Inhibition” value rises from 70% to 80%.

Going from O=C(Nc1ccc(F)cc1)NC1CCN(C(=O)c2cccnc2)CC1 [Compound 7, 1-(4-Fluoro-phenyl)-3-[1-(pyridine-3-carbonyl)-piperidin-4-yl]-urea] to O=C(Nc1ccc(F)cc1)NC1CCN(S(=O)(=O)c2ccc(Cl)cc2)CC1 [Compound 19, 1-[1-(4-Chloro-benzenesulfonyl)-piperidin-4-yl]-3-(4-fluoro-phenyl)-urea], the “% Inhibition” value falls from 89% to 85%.

Same assay, conditions: Conc 5000 nM

Going from O=C(Nc1ccccc1)NC1CCN(C(=O)CCCN2CCOCC2)CC1 [ComparativeExample 1, 1-[1-(4-Morpholin-4-yl-butyryl)-piperidin-4-yl]-3-phenyl-urea, reference compound] to CC(=O)N1CCC(NC(=O)Nc2ccccc2)CC1 [ComparativeExample 5, 1-(1-Acetyl-piperidin-4-yl)-3-phenyl-urea, reference compound], the “% Inhibition” value falls from 96% to 80%.

Tested on: not given
Assay: not given
Conditions: not given

Compared with O=C(Nc1ccc(F)cc1)NC1CCN(S(=O)(=O)c2ccc(Cl)cc2)CC1 [Compound 19, 1-[1-(4-Chloro-benzenesulfonyl)-piperidin-4-yl]-3-(4-fluoro-phenyl)-urea], CC(C)S(=O)(=O)N1CCC(NC(=O)Nc2ccc(Br)cc2)CC1 [Compound 44, 1-(4-bromophenyl)-3-(1-(isopropylsulfonyl)piperidin-4-yl)urea] is higher in melting point: 160 to 162 °C for the first, 240 to 242 °C for the second.

Compared with CC(=O)N1CCC(NC(=O)Nc2ccc(Br)cc2)CC1 [Compound 43, 1-(1-acetylpiperidin-4-yl)-3-(4-bromophenyl)urea], CC(C)C(=O)N1CCC(NC(=O)Nc2ccc(Br)cc2)CC1 [Compound 46, 1-(4-bromophenyl)-3-(1-isobutyrylpiperidin-4-yl)urea] is lower in melting point: 213 to 216 °C for the first, 193 to 204 °C for the second.
